Earlier results in publication PMC4734747 (Journal of nuclear medicine : official publication, Society …, 2013).

Legend:
[1] = test system: P-gp at the human BBB; conditions: brain, humans, no P-gp inhibition
[2] = test system: P-gp at the BBB; conditions: brain, macaques, no P-gp inhibition
[3] = test system: P-gp at the human BBB; conditions: tariquidar 6 mg/kg; not necessarily the maximal increase
[4] = test system: P-gp; conditions: rodents; ref 19 (Verbeek et al.)

Row | Structure (SMILES) | mean baseline K1 [1] | mean baseline K1 [2] | increase in the brain distribution (reported by K1) after P-gp inhibition [3] | affinity to P-gp relative to verapamil [4]
1 | CNC(=O)C(CCN1CCC(O)(c2ccc(Cl)cc2)CC1)(c1ccccc1)c1ccccc1 [dLOP, N-desmethyl-loperamide] | 0.015 mL/min/g | 0.04 mL/min/g | 4 fold | 
2 | CNCCCC(C#N)(c1ccc(OC)c(OC)c1)C(C)C (stereo not shown) [D617] |  |  |  | lower affinity to P-gp than does verapamil
